From patent US20240376091A1, “THIADIAZOLEAMIDE DERIVATIVES AND THEIR APPLICATIONS” (ZHEJIANG UNIVERSITY, priority 2021, published 2024)
Positions count from the first letter of the chain named.

Experiments:
FL-AR^V684A = target: T1, FL-AR^V684A (Homo sapiens, UniProt P10275, V685A); assay: Luciferase reporter assay in PC3 cells, AR V684A; format: cell-based; details: read-out: IC50 toward FL-AR^V684A
T1 construct: toward full-length (FL)-AR^WT and FL-AR^V684A; expressed in transfected cells; host or cells: PC3
T1 sequence (P10275 1-920 V685A): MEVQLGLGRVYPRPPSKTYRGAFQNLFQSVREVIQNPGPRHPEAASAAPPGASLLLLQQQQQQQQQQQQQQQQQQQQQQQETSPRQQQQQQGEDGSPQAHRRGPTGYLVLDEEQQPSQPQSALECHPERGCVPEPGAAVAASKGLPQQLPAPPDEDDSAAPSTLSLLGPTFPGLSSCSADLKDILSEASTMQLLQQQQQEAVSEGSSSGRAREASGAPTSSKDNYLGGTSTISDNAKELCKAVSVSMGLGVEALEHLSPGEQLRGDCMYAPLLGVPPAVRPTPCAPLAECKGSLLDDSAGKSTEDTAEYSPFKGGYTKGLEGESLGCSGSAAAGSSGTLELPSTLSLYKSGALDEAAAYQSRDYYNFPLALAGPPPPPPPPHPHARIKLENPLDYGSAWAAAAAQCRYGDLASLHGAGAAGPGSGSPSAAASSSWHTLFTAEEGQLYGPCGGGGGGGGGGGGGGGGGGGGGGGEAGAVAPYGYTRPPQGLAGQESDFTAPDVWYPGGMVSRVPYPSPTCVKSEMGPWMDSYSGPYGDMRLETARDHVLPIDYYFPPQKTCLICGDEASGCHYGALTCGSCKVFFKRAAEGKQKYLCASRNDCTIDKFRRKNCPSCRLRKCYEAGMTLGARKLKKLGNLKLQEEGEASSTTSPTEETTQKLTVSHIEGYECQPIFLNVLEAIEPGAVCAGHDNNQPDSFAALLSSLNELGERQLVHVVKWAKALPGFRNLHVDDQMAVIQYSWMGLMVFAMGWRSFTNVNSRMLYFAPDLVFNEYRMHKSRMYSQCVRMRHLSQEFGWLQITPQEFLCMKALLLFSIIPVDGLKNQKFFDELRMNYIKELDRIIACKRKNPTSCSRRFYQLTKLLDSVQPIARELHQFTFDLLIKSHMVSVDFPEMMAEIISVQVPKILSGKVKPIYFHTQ
Procedure: Detection principles: A reporter system for detecting the activities of firefly luciferase. To quantitatively detect the interaction between transcription factors and target promoters, the fluorescent intensities are detected to quantitatively evaluate the activities of firefly luciferase.
Methods: PC3 cells (no endogenous AR) treated with DMEM media supplemented with 5% CSS for 48 hours. Then, the PC3 cells (1.2×10^4/well) were seeded into 96-well plates. After 16 hours, the PC3 cells were transfected with 20 ng/well plasmid and incubated for 20 min at room temperature. After 1 day incubation, the media in the wells was replaced, followed by the addition of various concentrations of compounds. After 48 hours, the culture medium was discarded and the cells were washed with 100 μL PBS, followed by addition of 30 μL 1×PLB and the 96-well plates was shaken on a shaker for 20 min to ensure complete lysis of the cells. Then, the cell lysis supernatant (20 μL/well) was transferred to a white opaque 96-well, and addition of 30 μL Luciferase Assay Reagent II to each well. Then, the fluorescent intensities of firefly luciferase were evaluated. Afterwards, 30 μL Stop&Glo Reagant was added to the wells, and the fluorescent intensities of […] evaluated.

LNCaP xenograft [1] = details: mouse, in vivo
Procedure: (§1) Methods: LNCaP cells were injected to the Male CB17 SCID mice (6-8 weeks old). Once tumor size reached target value, the mice were randomized into three groups with 6-8 mice per group. […] The mice weight and tumor volume were periodically recorded. Finally, the tumors were harvested.

LNCaP xenograft [2] = assay: LNCaP xenograft model in vivo; details: intratumor injection 2.5 mg/kg/week
Procedure: as §1

AR = target: T2, AR (Homo sapiens, UniProt P10275, T878A); assay: AR transcriptional activity, LNCaP-ARR2PB-eGFP reporter cells; format: cell-based; details: LNCaP-ARR2PB-eGFP cells, 5 nM DHT, 72 hours; read-out: IC50 AR transcriptional activities
T2 construct: into the androgen-dependent PCa cells (LNCaP); endogenous in cells; host or cells: LNCaP-ARR2PB-eGFP
T2 sequence (P10275 1-920 T878A): T1 sequence (P10275 1-920 V685A) with A685V, T878A
Text: Detection principles: We conducted a stable transfection of promoter ARR2PB known for its strong AR responsiveness, into the androgen-dependent PCa cells (LNCaP). The expression of enhanced green fluorescent protein (eGFP) is depending on the degree of activation of AR. Therefore, LNCaP-ARR2PB-eGFP cell line could quantitatively determine the AR antagonistic activities of the compounds by evaluating the expression of eGFP.

CC(=O)Cc1nsc(NC(=O)c2cc(-c3cccc(C(F)(F)F)c3)oc2C)n1 [Compound A-1, 2-Methyl-N-(3-(2-oxopropyl)-1,2,4-thiadiazol-5-yl)-5-(3-(trifluoromethyl)phenyl)furan-3-carboxamide]
IC50 (FL-AR^V684A): 60 nM | mortality (LNCaP xenograft [1]): no mortality | body weight (LNCaP xenograft [2]): no significant loss of body weight | tumor growth inhibition, tumor volume (LNCaP xenograft [2]): much superior to that for Enzalutamide | tumor growth inhibition, tumor weight (LNCaP xenograft [2]): much superior to that for Enzalutamide | IC50 (AR): 30 nM
